Assay results taken from patent publication US20080090848A1, “Substituted Purinyl Derivatives With Immunomodulator And Chemoprotective Activity And Use Alone Or With Medium-Chain Length Fatty Acids Or Glycerides” (priority 2004, published 2008).
Read-outs that look alike come from different tables or passages of the source.

Key:
hematopoietic cells [1] = test: Chemoprotection: in vivo protection of hematopoietic cells by compound II in CY-treated mice (Example 4); set-up: species or system C57BL/6 mice
Protocol: (§1) Female C57BL/6 mice, 6 to 8 weeks old, were immunosuppressed by treatment with 200 mg/kg of cyclophosphamide (CY) administered intravenously at day 0. To examine the chemoprotective effect of compound I, mice were pre-treated intraperitoneally at day −3, −2 and −1 with 50 mg/kg of the compound. Mice were sacrificed at day +5 by cardiac puncture and cervical dislocation. Then, cell suspensions were prepared from thymus, spleen and bone marrow as follows.
(§2) Tissues were crushed in PBS buffer and contaminating erythrocytes were lysed in ACK buffer (155 mM NH4Cl, 12 mM NaHCO3, 0.1 mM EDTA, pH 7.3) for five minutes. Cells were then collected by centrifugation and washed three times in PBS and resuspended in tissue culture medium. Cells were counted with a Coulter counter.
The effect of compound II on in vivo induction of hematopoietic cell proliferation or protection was determined following the protocol described in Example 1. Oral administration of compound II (50 mg/kg or 100 mg/kg) was performed on day −3, −2 and −1.

hematopoietic cells [2] = test: Chemoprotection: in vivo protection of hematopoietic cells by compound I in CY-immunosuppressed mice (Example 1); set-up: species or system C57BL/6 mice; settings: for Cell count, peripheral blood white cells / Cell count, spleen red cells / Cell count, spleen white cells: CY 200 mg/kg i.v. day 0, compound I 50 mg/kg i.p. day −3, −2, −1, sacrifice day +5
Protocol: as §1, §2

[3] = tested on: bone marrow progenitor cell; test: Bone marrow progenitor cells (CFU-GEMM) after tricaprin, compound I or both in CY-treated mice (Example 3); assay type: in vivo, C57BL/6 mice; settings: tricaprin 60.5 mM oral and/or compound I 50 mg/kg
Protocol: as §1
(§3) The effect of tricaprin, compound I, and the combination of both compounds on in vivo induction of hematopoietic cell proliferation or protection was determined following the protocol described in Example 1. Oral administration of tricaprin (60.5 mM) and/or peritoneal injection of compound I were performed on day −3, −2 and −1.

bone marrow red cells = test: Chemoprotection: combination of tricaprin and compound I in CY-treated mice, bone marrow red cell count (Example 3); assay type: in vivo, C57BL/6 mice; settings: tricaprin 60.5 mM oral and/or compound I 50 mg/kg peritoneal injection, day −3, −2, −1
Protocol: as §1, §2, §3

[4] = rat, in vivo, po; cited from earlier work
MC-38 colon cancer = test: Survival of mice with MC-38 colon cancer treated with a toxic regimen of 5-fluorouracil; assay type: in vivo; settings: compound I plus toxic regimen of 5-fluorouracil versus 5-fluorouracil alone (e.g., 40 mg/kg)
[5] = i.v., rat; cited from earlier work
hematopoietic cells [6] = test: Chemoprotection: combination of histamine dihydrochloride and compound I in CY-treated mice (Example 6); assay type: in vivo, C57BL/6 mice; settings: for Effect on bone marrow white cell count (FIG. 5): intravenous histamine dihydrochloride 25 mg/kg and/or compound I 5 mg/kg, day −3, −2, −1, CY-treated mice, compared to CY
Protocol: (§4) Mice were sacrificed at day +5 by cardiac puncture and cervical dislocation. Then, cell suspensions were prepared from thymus, spleen and bone marrow as follows. Tissues were crushed in PBS buffer and contaminating erythrocytes were lysed in ACK buffer (155 mM NH4Cl, 12 mM NaHCO3, 0.1 mM EDTA, pH 7.3) for five minutes. Cells were then collected by centrifugation and washed three times in PBS and resuspended in tissue culture medium. Cells were counted with a Coulter counter. Effect of low dose of histamine, compound I, and the combination of both compounds on in vivo induction of hematopoietic cell proliferation or protection was undertaken following the protocol described in Example 1.

CTLs = settings: compared with interleukin 2; cited from earlier work
[7] = cited from earlier work
hematopoietic cells [8] = test: Chemoprotection: combination of sodium caprate and compound I in CY-treated mice (Example 2); assay type: in vivo, C57BL/6 mice; settings: for Effect on bone marrow red cell count (FIG. 2) / Effect on bone marrow white cell count (FIG. 3): low dose, intravenous: sodium caprate 1.21 mM, compound I 5 mg/kg, sodium caprate or compound I used alone; for Effect on peripheral red blood cell count (FIG. 1): sodium caprate 60.5 mM oral and/or compound I 50 mg/kg i.p., day −3, −2, −1, versus respective CY control
hematopoietic cells [9] = test: Chemoprotection: combination of histamine dihydrochloride and compound II in CY-treated mice (Example 7); assay type: in vivo, C57BL/6 mice; settings: histamine dihydrochloride 25 mg/kg i.v. and/or compound II 100 mg/kg oral, day −3, −2, −1, compared to CY
Protocol: as §1, §2
Effect of low dose of histamine, compound II, and the combination of both compounds on in vivo induction of hematopoietic cell proliferation or protection was undertaken following the protocol described in Example 1. Intravenous administration of histamine dihydrochloride (25 mg/kg) and oral administration of compound II (100 mg/kg) were performed on day −3, −2 and −1.

hematopoietic cells [10] = test: Chemoprotection: combination of sodium caprate and compound II in CY-treated mice (Example 5); assay type: in vivo, C57BL/6 mice; settings: oral sodium caprate 60.5 mM and/or compound II 50 mg/kg or 100 mg/kg, day −3, −2, −1
Protocol: as §4, with “The effect” for “Effect”, “sodium caprate,” for “low dose of histamine,”, “II,” for “I,”, “determined” for “undertaken”

[11] = CY alone (200 mg/kg i.v. day 0)
[12] = pre-treatment 50 mg/kg i.p. in CY-treated mice, versus CY
[13] = CY + compound II 50 mg/kg oral, day −3, −2, −1
[14] = CY + compound II 100 mg/kg oral, day −3, −2, −1
[15] = oral pre-treatment in CY-treated mice, dose not given

## O=P1(N(CCCl)CCCl)NCCCO1 (stereo not shown) [CY, cyclophosphamide, reference compound]
Hematopoietic cells [1]; [11]
  Cell count, bone marrow red cells: 31.6 ± 5.0 10^6
  Cell count, bone marrow white cells: 19.8 ± 4.4 10^6
Hematopoietic cells [2]
  Cell count, peripheral blood white cells: 1.3 ± 0.6 10^6
  Cell count, spleen red cells: 341 ± 107 10^6
  Cell count, spleen white cells: 34. ± 9 10^6
[3]
  CFU-GEMM (colony number), bone marrow: 1 colony number
Bone marrow red cells
  Bone marrow red cell count: 31.5 ± 3.5 10^6

## CCCCCCCCCC(=O)OCC(COC(=O)CCCCCCCCC)OC(=O)CCCCCCCCC [Tricaprin, tricaprin]
[3]
  CFU-GEMM (colony number), bone marrow: 0.5 colony number
Bone marrow red cells
  Bone marrow red cell count: 33.8 ± 3.7 10^6

## CCCCCCCC(=O)O [caprylic acid]
[4]
  LD50: 10080 mg/kg

## CN(C)c1ncnc2c1ncn2CCCCCOC(=O)NC(CCCNC(=N)N)C(=O)O (stereo not drawn) [compound I, [[5-[6-(N,N-dimethylamino)purin-9-yl]pentoxy]-carbonyl]d-arginine]
MC-38 colon cancer
  Survival of animals: improved survival
[5]
  LD50: more than 500 mg/kg
Hematopoietic cells [6]
  Effect on bone marrow white cell count (FIG. 5): No significant effect
CTLs
  In vitro stimulation of CTLs: comparable to the immune growth factor or cytokine interleukin 2
Hematopoietic cells [2]
  Cell count, peripheral blood white cells: 2.6 ± 0.6 10^6
  Cell count, spleen red cells: 468 ± 104 10^6
  Cell count, spleen white cells: 48 ± 5 10^6
Hematopoietic cells [2]; pre-treatment 50 mg/kg i.p. in CY-treated mice
  Spleen red cell count compared to non-immunosuppressed animals (control): some treated animals returned to a “baseline level”
Hematopoietic cells [2]; [12]
  Effect on peripheral white blood cell count (in words): significant increase
  Effect on spleen red cell count (in words): significant increase
  Effect on spleen white cell count (in words): significant increase
[7]
  In vivo antitumor activity: significant in vivo antitumor activity
[3]
  CFU-GEMM (colony number), bone marrow: 1 colony number
Hematopoietic cells [8]
  Effect on bone marrow red cell count (FIG. 2): No effect
  Effect on bone marrow white cell count (FIG. 3): No effect
  Effect on peripheral red blood cell count (FIG. 1): significant increase
Bone marrow red cells
  Bone marrow red cell count: 37.4 ± 7.1 10^6

## CN(C)c1ncnc2c1ncn2CCCCCO [compound II]
Hematopoietic cells [9]
  Effect on spleen white cell count (FIG. 7): No significant effect
Hematopoietic cells [1]; [13]
  Cell count, bone marrow red cells: 29.4 ± 2.7 10^6
  Cell count, bone marrow white cells: 17.4 ± 3.5 10^6
Hematopoietic cells [1]; [14]
  Cell count, bone marrow red cells: 43.9 ± 16.3 10^6
  Cell count, bone marrow white cells: 30.5 ± 9.4 10^6
Hematopoietic cells [1]; oral pre-treatment in CY-treated mice
  Bone marrow red and white cell counts compared to non-immunosuppressed animals (control): some treated animals return to a “baseline level”
Hematopoietic cells [1]; [15]
  Effect on bone marrow red cell count (in words): significant increase
  Effect on bone marrow white cell count (in words): significant increase

## Cl.Cl.NCCc1c[nH]cn1 [histamine, histamine dihydrochloride]
Hematopoietic cells [9]
  Effect on spleen white cell count (FIG. 7): No significant effect
Hematopoietic cells [6]; histamine alone, general statement
  Stimulation of hematopoiesis: weakly stimulate hematopoiesis
Hematopoietic cells [6]
  Effect on bone marrow white cell count (FIG. 5): No significant effect

## c1ccc([C@H]2CN3CCSC3=N2)cc1 [levamisole, reference compound]
[5]
  LD50: 16 mg/kg

## CCCCCCCCCC(=O)[O-].[Na+] [sodium caprate]
Hematopoietic cells [10]
  Effect on peripheral red blood cell count (FIG. 4): weak increase
Hematopoietic cells [8]
  Effect on bone marrow red cell count (FIG. 2): No effect
  Effect on bone marrow white cell count (FIG. 3): No effect
  Effect on peripheral red blood cell count (FIG. 1): significant increase
